Key:
[1] = molecular target: Diacylglycerol acyltransferase 2 (DGAT2) (Homo sapiens, UniProt Q96PD7); experiment: Selectivity data (Table S1); type: biochemical
Dopamine receptor 2 (D2) = Dopamine receptor 2 (D2) (Homo sapiens, UniProt P14416); experiment: Selectivity data (Table S1); type: binding
[2] = molecular target: Cyclooxygenase 2 (prostaglandin endoperoxide synthase 2) (Homo sapiens, UniProt P35354); experiment: Selectivity data (Table S1); type: biochemical
Dopamine receptor 1 (D1) = Dopamine receptor 1 (D1) (Homo sapiens, UniProt P21728); experiment: Selectivity data (Table S1); type: binding
[3] = molecular target: Sodium channel, neuronal alpha-subunit (NaV1.1) (Homo sapiens, UniProt P35498); experiment: Selectivity data (Table S1)
[4] = molecular target: Phosphodiesterase 3A1 (PDE3A1) (Homo sapiens, UniProt Q14432); experiment: Selectivity data (Table S1); type: biochemical
[5] = molecular target: Mitogen-activated protein kinase 14 (MAPK14 / P38-alpha) (Homo sapiens, UniProt Q16539); experiment: Selectivity data (Table S1); type: biochemical
[6] = molecular target: Phosphodiesterase 3B (PDE3B) (Homo sapiens, UniProt Q13370); experiment: Selectivity data (Table S1); type: biochemical
[7] = molecular target: Sodium channel, type V, alpha-subunit (NaV1.5) (Homo sapiens, UniProt Q14524); experiment: Selectivity data (Table S1)
[8] = Intra-/extracellular unbound concentration ratio (Kpuu) in human hepatocytes; type: in vitro ADME; settings: cryopreserved hepatocytes, ratio of free intracellular and media concentration after 1 h incubation at 1 μM, geometric mean of 3 replicates ± SD
Experimental: kpuu values were determined by measuring total cell and media concentrations corrected for their respective fraction unbound. Detailed methods to determine intra- and extracellular concentrations of compound in the HEKNaCT cells and human hepatocytes will be the subject of a separate manuscript that is under preparation. […]
Intra- and extracellular concentrations of compound in cellular assays. kpuu values were determined by measuring total cell and media concentrations corrected for their respective […]
fraction unbound. […]
The solution was heated to reflux until the total volume was reduced to ~25 mL.
Hexane (25 mL) was added and the mixture was brought back to reflux than allowed to slowly cool to room temperature. After standing at room temperature for 16 h, the resulting suspension was filtered and dried under high vacuum to yield (S)-2-(4-(tert-butyl)phenethyl)-2-hydroxysuccinic acid (3) as a white solid. The filtrate was allowed to stand at room temperature for 4 days. The solvent evaporated to ~15 mL and large, colorless crystals formed.
X-ray analysis. Data collection was performed on a Bruker APEX diffractometer at room temperature. Data collection consisted of 3 omega scans and low angle and three at high angle; each with 0.5 step. In addition, 2 phi scans were collected to improve the quality of the […]

DIO mice = experiment: Plasma glucose concentrations in DIO mice, acute or sub-chronic dosing; settings: single 250 mg/kg dose or 3 days 250 mg/kg BID
[9] = molecular target: Histamine receptor 1 (H1) (Homo sapiens, UniProt P35367); experiment: Selectivity data (Table S1); type: binding
[10] = molecular target: Gamma-aminobutyric acid receptor A, alpha 1 (GABRA1) (Homo sapiens, UniProt P14867+P47870); experiment: Selectivity data (Table S1); type: binding
[11] = molecular target: Monoacylglycerol acyltransferase 2 (MGAT2) (Homo sapiens, UniProt Q3SYC2); experiment: Selectivity data (Table S1); type: biochemical
[12] = molecular target: Serotonin receptor 2A (5-HT2A) (Homo sapiens, UniProt P28223); experiment: Selectivity data (Table S1); type: binding
[13] = molecular target: Neurokinin receptor 1 (NK1) (Homo sapiens, UniProt P25103); experiment: Selectivity data (Table S1); type: binding
[14] = molecular target: Cholecystokinin receptor B (CCKBR) (Homo sapiens, UniProt P32239); experiment: Selectivity data (Table S1); type: binding
[15] = molecular target: Proto-oncogene tyrosine-protein kinase (SRC) (Homo sapiens, UniProt P12931); experiment: Selectivity data (Table S1); type: biochemical
[16] = molecular target: Muscarinic acetylcholine receptor 2 (M2) (Homo sapiens, UniProt P08172); experiment: Selectivity data (Table S1); type: binding
[17] = molecular target: Dopamine transporter, sodium-dependent (DAT) (Homo sapiens, UniProt Q01959); experiment: Selectivity data (Table S1)
[18] = molecular target: Noradrenaline transporter, sodium-dependent (NAT) (Homo sapiens, UniProt P23975); experiment: Selectivity data (Table S1)
[19] = molecular target: ATP-binding cassette, sub-family B, member 11 (ABCB11) (Homo sapiens, UniProt O95342); experiment: Selectivity data (Table S1)

Sequence of Mitogen-activated protein kinase 14 (MAPK14 / P38-alpha) (Q16539 whole entry): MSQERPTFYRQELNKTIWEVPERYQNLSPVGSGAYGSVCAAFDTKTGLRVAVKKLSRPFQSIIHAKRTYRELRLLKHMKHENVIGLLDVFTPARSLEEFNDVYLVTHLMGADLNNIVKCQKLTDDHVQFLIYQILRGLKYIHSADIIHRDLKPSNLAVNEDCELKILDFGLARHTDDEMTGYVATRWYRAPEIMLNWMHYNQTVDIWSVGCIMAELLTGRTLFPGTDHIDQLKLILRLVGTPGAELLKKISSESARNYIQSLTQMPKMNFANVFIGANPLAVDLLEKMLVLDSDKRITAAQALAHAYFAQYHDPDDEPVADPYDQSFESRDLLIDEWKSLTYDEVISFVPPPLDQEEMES
Sequence of Serotonin receptor 2A (5-HT2A) (P28223 whole entry): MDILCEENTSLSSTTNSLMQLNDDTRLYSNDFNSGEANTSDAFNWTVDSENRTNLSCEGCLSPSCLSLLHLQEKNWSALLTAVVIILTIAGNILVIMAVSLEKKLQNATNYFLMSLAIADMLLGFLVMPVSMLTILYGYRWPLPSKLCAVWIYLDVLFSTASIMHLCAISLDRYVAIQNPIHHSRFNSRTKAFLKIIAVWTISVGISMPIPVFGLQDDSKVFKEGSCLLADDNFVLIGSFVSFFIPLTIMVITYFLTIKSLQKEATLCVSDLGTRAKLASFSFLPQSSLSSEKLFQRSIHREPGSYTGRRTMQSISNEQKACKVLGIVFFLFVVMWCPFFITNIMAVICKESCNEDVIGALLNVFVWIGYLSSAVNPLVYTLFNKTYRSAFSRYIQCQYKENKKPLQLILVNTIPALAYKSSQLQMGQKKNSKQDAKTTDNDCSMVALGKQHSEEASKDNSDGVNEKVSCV
Sequence of Muscarinic acetylcholine receptor 2 (M2) (P08172 whole entry): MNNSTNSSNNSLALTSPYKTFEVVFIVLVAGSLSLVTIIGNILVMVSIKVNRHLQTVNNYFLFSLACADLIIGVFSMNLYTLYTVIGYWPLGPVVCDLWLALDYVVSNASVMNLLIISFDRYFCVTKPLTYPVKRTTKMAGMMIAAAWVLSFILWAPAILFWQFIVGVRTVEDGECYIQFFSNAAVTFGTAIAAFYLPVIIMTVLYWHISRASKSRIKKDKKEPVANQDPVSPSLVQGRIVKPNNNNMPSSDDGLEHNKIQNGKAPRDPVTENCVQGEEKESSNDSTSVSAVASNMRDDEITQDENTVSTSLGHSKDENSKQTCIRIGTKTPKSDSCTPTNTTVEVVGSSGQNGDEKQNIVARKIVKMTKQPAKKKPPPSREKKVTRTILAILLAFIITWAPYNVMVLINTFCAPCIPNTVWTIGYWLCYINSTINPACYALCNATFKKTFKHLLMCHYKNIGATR
Sequence of Proto-oncogene tyrosine-protein kinase (SRC) (P12931 whole entry): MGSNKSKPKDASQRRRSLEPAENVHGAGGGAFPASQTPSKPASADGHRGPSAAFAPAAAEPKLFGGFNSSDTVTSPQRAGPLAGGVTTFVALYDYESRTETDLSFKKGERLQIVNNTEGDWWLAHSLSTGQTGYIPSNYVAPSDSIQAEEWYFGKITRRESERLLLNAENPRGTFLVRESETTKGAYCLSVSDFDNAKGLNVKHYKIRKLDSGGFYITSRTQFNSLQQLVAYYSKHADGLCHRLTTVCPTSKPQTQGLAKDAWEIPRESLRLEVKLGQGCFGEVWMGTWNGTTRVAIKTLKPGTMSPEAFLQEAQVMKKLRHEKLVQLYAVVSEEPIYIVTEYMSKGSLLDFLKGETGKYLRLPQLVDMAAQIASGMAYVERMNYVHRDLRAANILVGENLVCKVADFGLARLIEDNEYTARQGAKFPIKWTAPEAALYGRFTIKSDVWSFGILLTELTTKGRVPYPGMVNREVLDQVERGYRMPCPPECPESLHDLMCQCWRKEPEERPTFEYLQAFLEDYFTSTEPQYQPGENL
Sequence of Diacylglycerol acyltransferase 2 (DGAT2) (Q96PD7 whole entry, species assumed): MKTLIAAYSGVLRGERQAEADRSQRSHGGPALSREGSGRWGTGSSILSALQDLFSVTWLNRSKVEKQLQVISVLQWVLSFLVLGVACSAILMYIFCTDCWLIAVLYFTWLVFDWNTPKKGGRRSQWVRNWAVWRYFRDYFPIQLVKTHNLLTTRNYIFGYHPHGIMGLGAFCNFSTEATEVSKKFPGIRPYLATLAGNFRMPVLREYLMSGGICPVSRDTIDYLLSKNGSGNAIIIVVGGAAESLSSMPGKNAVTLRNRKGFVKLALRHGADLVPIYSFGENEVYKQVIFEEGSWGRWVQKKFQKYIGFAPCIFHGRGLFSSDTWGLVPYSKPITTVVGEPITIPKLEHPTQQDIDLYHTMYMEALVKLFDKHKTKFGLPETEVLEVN
Sequence of Phosphodiesterase 3A1 (PDE3A1) (Q14432 whole entry): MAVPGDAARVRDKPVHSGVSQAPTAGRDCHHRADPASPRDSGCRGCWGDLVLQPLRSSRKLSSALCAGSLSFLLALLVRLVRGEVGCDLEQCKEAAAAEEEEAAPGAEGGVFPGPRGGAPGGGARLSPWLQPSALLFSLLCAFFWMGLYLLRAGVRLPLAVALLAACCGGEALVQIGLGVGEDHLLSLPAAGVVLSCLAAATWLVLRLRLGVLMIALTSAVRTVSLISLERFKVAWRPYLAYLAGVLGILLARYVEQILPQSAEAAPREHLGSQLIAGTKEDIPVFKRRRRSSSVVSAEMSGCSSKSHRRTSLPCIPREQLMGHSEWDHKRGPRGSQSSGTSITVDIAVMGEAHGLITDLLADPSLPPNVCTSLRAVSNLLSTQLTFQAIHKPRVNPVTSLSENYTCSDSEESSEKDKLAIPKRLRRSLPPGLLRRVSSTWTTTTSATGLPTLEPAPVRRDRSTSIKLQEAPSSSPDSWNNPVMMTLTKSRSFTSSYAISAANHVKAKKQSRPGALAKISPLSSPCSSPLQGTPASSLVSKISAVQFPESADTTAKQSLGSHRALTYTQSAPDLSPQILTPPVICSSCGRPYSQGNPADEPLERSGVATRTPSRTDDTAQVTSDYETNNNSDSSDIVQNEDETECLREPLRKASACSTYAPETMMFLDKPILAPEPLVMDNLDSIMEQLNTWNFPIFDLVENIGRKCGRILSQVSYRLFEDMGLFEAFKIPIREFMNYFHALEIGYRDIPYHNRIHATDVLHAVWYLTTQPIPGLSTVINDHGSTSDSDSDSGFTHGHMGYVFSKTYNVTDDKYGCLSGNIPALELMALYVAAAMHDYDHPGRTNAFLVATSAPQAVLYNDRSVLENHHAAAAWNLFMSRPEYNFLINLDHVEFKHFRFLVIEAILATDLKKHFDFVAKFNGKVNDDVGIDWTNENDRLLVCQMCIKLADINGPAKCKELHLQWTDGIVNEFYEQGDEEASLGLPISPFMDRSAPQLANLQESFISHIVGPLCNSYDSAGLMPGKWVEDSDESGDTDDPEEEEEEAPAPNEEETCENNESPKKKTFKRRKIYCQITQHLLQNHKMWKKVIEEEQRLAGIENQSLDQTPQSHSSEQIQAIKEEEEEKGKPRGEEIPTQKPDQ
Sequence of Cyclooxygenase 2 (prostaglandin endoperoxide synthase 2) (P35354 18-604): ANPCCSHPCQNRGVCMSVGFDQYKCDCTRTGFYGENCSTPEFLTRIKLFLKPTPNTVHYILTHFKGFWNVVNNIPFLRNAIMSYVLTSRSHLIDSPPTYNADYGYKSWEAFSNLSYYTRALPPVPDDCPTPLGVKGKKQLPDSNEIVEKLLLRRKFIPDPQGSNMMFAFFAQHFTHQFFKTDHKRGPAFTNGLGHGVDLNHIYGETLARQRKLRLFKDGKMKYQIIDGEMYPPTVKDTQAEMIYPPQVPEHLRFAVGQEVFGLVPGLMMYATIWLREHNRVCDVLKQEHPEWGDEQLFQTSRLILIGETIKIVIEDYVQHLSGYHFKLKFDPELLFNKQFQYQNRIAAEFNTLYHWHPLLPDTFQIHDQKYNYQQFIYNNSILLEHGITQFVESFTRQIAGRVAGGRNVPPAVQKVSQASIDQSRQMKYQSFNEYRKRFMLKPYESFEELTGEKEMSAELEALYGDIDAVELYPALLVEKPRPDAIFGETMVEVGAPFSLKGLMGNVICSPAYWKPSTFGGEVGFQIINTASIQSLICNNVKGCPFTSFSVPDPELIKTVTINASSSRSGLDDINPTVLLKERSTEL
Sequence of Monoacylglycerol acyltransferase 2 (MGAT2) (Q3SYC2 whole entry): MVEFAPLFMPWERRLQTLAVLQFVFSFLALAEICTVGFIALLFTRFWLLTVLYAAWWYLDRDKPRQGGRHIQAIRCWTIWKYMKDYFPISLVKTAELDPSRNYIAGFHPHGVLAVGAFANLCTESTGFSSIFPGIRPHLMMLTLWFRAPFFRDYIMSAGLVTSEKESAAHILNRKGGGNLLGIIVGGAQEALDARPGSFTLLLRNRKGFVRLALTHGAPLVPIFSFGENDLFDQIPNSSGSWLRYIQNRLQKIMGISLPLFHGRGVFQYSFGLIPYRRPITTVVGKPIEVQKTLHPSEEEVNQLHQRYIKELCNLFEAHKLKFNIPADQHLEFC
Sequence of Histamine receptor 1 (H1) (P35367 whole entry): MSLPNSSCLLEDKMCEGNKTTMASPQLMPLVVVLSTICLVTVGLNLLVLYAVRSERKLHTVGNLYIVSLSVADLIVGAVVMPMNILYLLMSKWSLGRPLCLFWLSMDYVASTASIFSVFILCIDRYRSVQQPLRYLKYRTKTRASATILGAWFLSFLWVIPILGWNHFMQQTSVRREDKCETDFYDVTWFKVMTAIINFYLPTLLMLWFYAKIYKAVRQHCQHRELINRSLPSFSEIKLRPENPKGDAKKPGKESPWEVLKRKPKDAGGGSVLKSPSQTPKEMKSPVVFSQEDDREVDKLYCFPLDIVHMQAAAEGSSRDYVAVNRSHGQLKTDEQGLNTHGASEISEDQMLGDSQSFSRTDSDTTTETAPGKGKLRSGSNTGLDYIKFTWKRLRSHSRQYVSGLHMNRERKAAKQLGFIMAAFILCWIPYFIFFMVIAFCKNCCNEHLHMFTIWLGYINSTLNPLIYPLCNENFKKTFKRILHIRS

CC(C)(C)c1ccc(CC[C@@](O)(CC(=O)O)C(=O)O)cc1 [Compound 2]
> 50 µM: IC50 [1] | IC50 [11]
modest but significant reductions: plasma glucose concentrations (DIO mice)
4.8 ± 0.5: Kp uu at 1 h, 1 µM [8]
< 10%: inhibition at 100 µM (Dopamine receptor 2 (D2)) | inhibition at 100 µM (Dopamine receptor 1 (D1)) | inhibition at 10 µM [3] | inhibition at 100 µM [5] | inhibition at 100 µM [6] | inhibition at 10 µM [7] | inhibition at 100 µM [9] | inhibition at 100 µM [10] | inhibition at 100 µM [12] | inhibition at 100 µM [13] | inhibition at 100 µM [14] | inhibition at 100 µM [15] | inhibition at 100 µM [16] | inhibition at 100 µM [17] | inhibition at 100 µM [18]
> 200 µM: IC50 [19]
> 30 µM: IC50 [4]
22%: inhibition at 100 µM [2]
